Results as given in the CombiSolv-Exp solvation set (Vermeire and Green 2021).

Assay: solvent given as SMILES
[1] = in CCCCCCCCC=CCCCCCCCC(=O)OCC(COC(=O)CCCCCCCC=CCCCCCCCC)OC(=O)CCCCCCCC=CCCCCCCCC

For `Clc1cc(Cl)cc(-c2cc(Cl)ccc2Cl)c1`, the “solvation free energy, 298 K” value (in O) was -2.73 kcal/mol.
With `CCCCOCC` the “solvation free energy, 298 K” value (in CC(C)CCl) was -4.73 kcal/mol, the “solvation free energy, 298 K” value (in CCC(C)Cl) was -4.73 kcal/mol and the “solvation free energy, 298 K” value (in CCCCCl) was -4.77 kcal/mol. The “solvation free energy, 298 K” value (in ClC(Cl)(Cl)Cl) was -4.91 kcal/mol.
With `Cc1ccc(CO)cc1` the “solvation free energy, 298 K” value (in O) was -7.12 kcal/mol.
With `CCC(=O)Nc1ccc(Cl)c(Cl)c1` the “solvation free energy, 298 K” value (in O) was -7.78 kcal/mol.
For `OC1CCCCCCCCCCC1`, the “solvation free energy, 298 K” value (in O) was -5.35 kcal/mol.
In the case of `C=C1C=CC2(C(C)C)CC12` (centres undefined), the “solvation free energy, 298 K” value (in O) is reported as -0.12 kcal/mol.
With `Clc1ccc(Cl)c(-c2ccccc2Cl)c1` the “solvation free energy, 298 K” value [1] was -9.75 kcal/mol and the “solvation free energy, 298 K” value (in O) was -2.37 kcal/mol.
In the case of `CC1CCC2=C1CC1CCC2(C)C1(C)C` (centres undefined), the “solvation free energy, 298 K” value (in O) is reported as 0.78 kcal/mol.
In the case of `CCCCCCBr`, the “solvation free energy, 298 K” value (in O) is reported as 0.18 kcal/mol.
For `CC(=O)C1CC1`, the “solvation free energy, 298 K” value (in O) was -4.61 kcal/mol.
With `CCOC(=O)CC` the “solvation free energy, 298 K” value (in CCCCCCCC) was -4.11 kcal/mol, the “solvation free energy, 298 K” value (in CCCCCCCCCCCCCCCC) was -3.91 kcal/mol and the “solvation free energy, 298 K” value (in CCCCCCCCO) was -4.3 kcal/mol. For the same compound, the “solvation free energy, 298 K” value (in CCOCCO) was -4.58 kcal/mol, the “solvation free energy, 298 K” value (in CN1CCCC1=O) was -4.49 kcal/mol and the “solvation free energy, 298 K” value (in O) was -2.7 kcal/mol. For the same compound, the “solvation free energy, 298 K” value (in O=CN1CCOCC1) was -4.3 kcal/mol and the “solvation free energy, 298 K” value (in [2H]O[2H]) was -2.8 kcal/mol.
In the case of `O=C(O)CCCCCCc1ccccc1`, the “solvation free energy, 298 K” value (in O) is reported as -8.72 kcal/mol.
In the case of `COc1ccc(CCN)cc1`, the “solvation free energy, 298 K” value (in C=CCCCCCCC=C) is reported as -9.4 kcal/mol and the “solvation free energy, 298 K” value (in O) is reported as -8.51 kcal/mol.
In the case of `N#CCc1ccc(C(=O)O)cc1`, the “solvation free energy, 298 K” value (in C=CCCCCCCCCCCCCCC) is reported as -10.2 kcal/mol and the “solvation free energy, 298 K” value (in O) is reported as -12.9 kcal/mol.
In the case of `C=CCC(C)C`, the “solvation free energy, 298 K” value (in C=CCCCCCCCCCCCCCC) is reported as -3.23 kcal/mol and the “solvation free energy, 298 K” value (in O) is reported as 1.9 kcal/mol.
With `c1ccc(N=Nc2ccccc2)cc1` the “solvation free energy, 298 K” value [1] was -11.2 kcal/mol and the “solvation free energy, 298 K” value (in O) was -4.82 kcal/mol.
For `CCC#N`, the “solvation free energy, 298 K” value (in C=CCCCCCCCCCCCCCC) was -2.85 kcal/mol, the “solvation free energy, 298 K” value (in CC(=O)N(C)C) was -4.99 kcal/mol and the “solvation free energy, 298 K” value (in CC(C)CC(C)(C)C) was -2.83 kcal/mol. The “solvation free energy, 298 K” value (in CCCCCC) was -3.04 kcal/mol, the “solvation free energy, 298 K” value (in CCCCCCC) was -2.86 kcal/mol and the “solvation free energy, 298 K” value (in CCCCCCCC) was -2.84 kcal/mol. For the same compound, the “solvation free energy, 298 K” value (in CCCCCCCCCCCCCCCC) was -2.64 kcal/mol, the “solvation free energy, 298 K” value (in CCCCCCCCO) was -3.65 kcal/mol and the “solvation free energy, 298 K” value (in CCCCO) was -4.01 kcal/mol. For the same compound, the “solvation free energy, 298 K” value (in CCOC(C)=O) was -4.68 kcal/mol, the “solvation free energy, 298 K” value (in CN(C)C=O) was -5.01 kcal/mol and the “solvation free energy, 298 K” value (in CO) was -4.92 kcal/mol. The “solvation free energy, 298 K” value (in ClC(Cl)(Cl)Cl) was -3.78 kcal/mol, the “solvation free energy, 298 K” value (in ClCCCl) was -4.98 kcal/mol and the “solvation free energy, 298 K” value (in Clc1ccccc1) was -4.45 kcal/mol. For the same compound, the “solvation free energy, 298 K” value (in N#Cc1ccccc1) was -4.82 kcal/mol, the “solvation free energy, 298 K” value (in O) was -3.84 kcal/mol and the “solvation free energy, 298 K” value (in [2H]O[2H]) was -3.79 kcal/mol.
With `CCC(C)(C)C` the “solvation free energy, 298 K” value (in C=CCCCCCCCCCCCCCC) was -3.12 kcal/mol, the “solvation free energy, 298 K” value (in CC#N) was -2.32 kcal/mol and the “solvation free energy, 298 K” value (in CC(C)CCCC(C)CCCC(C)CCCCC(C)CCCC(C)CCCC(C)C) was -3 kcal/mol. For the same compound, the “solvation free energy, 298 K” value (in CC(C)O) was -2.73 kcal/mol, the “solvation free energy, 298 K” value (in CCC(C)(C)OC) was -3.49 kcal/mol and the “solvation free energy, 298 K” value (in CCCCCC) was -3.63 kcal/mol. The “solvation free energy, 298 K” value (in CCCCCCCCCC) was -3.38 kcal/mol, the “solvation free energy, 298 K” value (in CCCCCCCCCCCCCCCC) was -3.18 kcal/mol and the “solvation free energy, 298 K” value (in CCCCCCCCCOC(=O)c1ccccc1C(=O)OCCCCCCCCC) was -2.76 kcal/mol. The “solvation free energy, 298 K” value (in CCCCCO) was -2.93 kcal/mol, the “solvation free energy, 298 K” value (in CCCCO) was -2.89 kcal/mol and the “solvation free energy, 298 K” value (in CN1CCCC1=O) was -2.13 kcal/mol. For the same compound, the “solvation free energy, 298 K” value (in CN(C)C=O) was -2.33 kcal/mol and the “solvation free energy, 298 K” value (in O) was 2.51 kcal/mol.
In the case of `Clc1ccc(-c2ccc(Cl)c(Cl)c2Cl)cc1Cl`, the “solvation free energy, 298 K” value (in CCCCCCCCO) is reported as -12.9 kcal/mol.
For `C=O`, the “solvation free energy, 298 K” value (in O) was -2.75 kcal/mol.
For `CC=CCCC`, the “solvation free energy, 298 K” value (in NC=O) was -1.06 kcal/mol, the “solvation free energy, 298 K” value (in OCCO) was -1.25 kcal/mol and the “solvation free energy, 298 K” value (in OCCOCCO) was -1.92 kcal/mol. For the same compound, the “solvation free energy, 298 K” value (in OCCOCCOCCO) was -2.02 kcal/mol.
